Molecules are shown by their SMILES.

As usually defined, the IC50 is the concentration at which inhibition is half-maximal.

For one assay, the target named is T1, full length PDK1 (Homo sapiens, UniProt O15530).
T1 construct: Full-length human 3-Phosphoinositide Dependent protein Kinase-1; made in house; host or cells: baculovirus / Sf9 insect cells
T1 sequence (O15530 1-556): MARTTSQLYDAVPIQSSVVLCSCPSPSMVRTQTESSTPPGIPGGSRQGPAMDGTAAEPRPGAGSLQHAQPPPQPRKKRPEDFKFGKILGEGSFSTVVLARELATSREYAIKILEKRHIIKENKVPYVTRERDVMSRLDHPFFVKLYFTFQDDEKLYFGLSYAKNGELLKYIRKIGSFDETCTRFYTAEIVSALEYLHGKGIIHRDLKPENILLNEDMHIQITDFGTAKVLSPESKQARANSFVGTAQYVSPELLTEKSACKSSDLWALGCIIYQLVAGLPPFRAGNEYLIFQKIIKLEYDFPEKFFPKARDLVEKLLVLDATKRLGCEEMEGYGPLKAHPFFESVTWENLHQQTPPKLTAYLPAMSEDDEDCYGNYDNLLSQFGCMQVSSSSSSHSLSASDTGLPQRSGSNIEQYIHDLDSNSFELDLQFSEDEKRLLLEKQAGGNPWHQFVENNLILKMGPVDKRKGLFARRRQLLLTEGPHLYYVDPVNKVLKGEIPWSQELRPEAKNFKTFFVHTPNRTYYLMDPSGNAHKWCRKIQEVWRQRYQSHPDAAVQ
The experiment in a line: PDK1 enzyme assays (substrate phosphorylation: LEADseeker scintillation proximity, TR-FRET, PDKtide). The following applies: in at least one experimental run, read-out: IC50 against full length PDK1. The format is biochemical. As to the method: Substrate phosphorylation assays are carried out as follows:
Biotinylated-hAKT1: Human AKT1 (containing amino acid residues 136-480, as annotated by National Center for Biotechnology Information (NCBI) accession number AAL55732.1, with a MetLysLysHis6 N-terminal addition) is purified to >90% from lysate of baculovirus expression by Nickel Chelating ProBond resin (InVitrogen), Q-Sepharose Fast Flow, and Superdex 200 size exclusion chromatography. Biotinylation is achieved using EZ-Link Sulfo-NHS-LC Biotin (Pierce). Samples, in 25 mM HEPES, pH 7.5, 200 mM NaCl, 2 mM DTT, and 30% glycerol are stored at −80C until use.
Full-length human 3-Phosphoinositide Dependent protein Kinase-1 (hPDK1; National Center for Biotechnology Information (NCBI) accession number AAH39158.1 with a MetGlyHis6 N-terminal addition) is purified from baculovirus expression in Sf9 cells. Purity of approximately 80% is achieved by the use of chelation chromatography (Ni-NTA Superflow) and desalting columns. Samples, in 25 mM HEPES, 150 mM NaCl, 2.5 mM DTT, 0.05% Triton, 30% glycerol, pH 8.0, are stored at −80° C. until use.
The 39 amino acid biotinylated-PDKtide peptide Seq. ID No. 1: (Biotin-Ahx-[…]) was custom synthesized by 21st Century Biochemicals. […] The concentration was confirmed by quantitative amino acid analysis.
Scintillation Proximity (LEADseeker) Kinase Assay of Purified hPDK1:
Assays are performed in 384-well microtiter plates (Greiner, Catalog No. 784075). The reaction volume (10 μl) contains, in final concentrations, 25 mM MOPS (pH 7.5), 10 mM MgCl2, 50 mM KCl, 0.1 mg/ml BSA, 1 μM ATP, 3 uCi/ml ^33PγATP, 5 mM DTT, 1 mM CHAPS or 0.05% Tween20, 0.35 μM AKT1 biotinylated protein, and 10 nM hPDK1.
Compounds, titrated in DMSO, are evaluated at eleven concentrations ranging from 50 μM to 2 μM. […] Reactions are stopped after 3 hours at room temperature by the addition of 50 mM EDTA, 5 mg/ml LEADseeker beads (GE Healthcare) in PBS (10 ul). Beads are allowed to settle overnight, and samples are imaged on Viewlux (PerkinElmer).
The data for compound concentration responses were plotted as % Inhibition, calculated with the data reduction formula 100*(1−[(U1−C2)/(C1−C2)]), versus concentration of compound, where
Data were fitted to the curve described by:
TR-FRET Kinase Assay of Purified hPDK1:
Assays are performed in 384-well microtiter plates (Greiner, Catalog No. 784076).
As previously described for the Scintillation Proximity protocol, hPDK1 is pre-incubated (30 minutes at room temperature) with compounds before initiating phosphorylation of AKT1 by addition of substrate to the hPDK1 and compound mix. Reactions are stopped after 4-6 hours at room temperature by the addition to final concentrations of 0.02 M EDTA, 0.0875 μM Streptavidin APC (PerkinElmer), 0.03 μM AKT1 (phospho T308) antibody (Abcam Inc.), 0.00375 μM Lance Eu-labeled anti rabbit IgG Antibody (PerkinElmer). Antibody binding reaches equilibrium in 30 minutes before signal is read on an EnVision™ 2103 Multilabel Reader (PerkinElmer). APC Signals are normalized to Europium signal. Data processing is the same as described for the Scintillation Proximity assay with the exception of the generation of the “C2” control by addition of buffer without hPDK1 to control wells at t=0 instead of EDTA.
Scintillation Proximity (LEADseeker) Kinase Assay of Purified hPDK1 using Biotinylated-PDKtide Peptide:
Assays are performed in 384-well microtiter plates (Greiner, Catalog No. 784075). The reaction volume (10 μl) contains, in final concentrations, 25 mM MOPS (pH 7.5), 10 mM MgCl2, 50 mM KCl, 0.1 mg/ml BSA, 1 μM ATP, 3 uCi/ml ^33PγATP, 5 mM DTT, 0.5 mM CHAPS, 1 μM biotinylated-PDKtide peptide, and 0.5 nM hPDK1.
Compounds, titrated in DMSO, are evaluated at eleven concentrations ranging from 25 μM to 0.4 pM. […] Reactions are stopped after 4 hours at room temperature by the addition of 50 mM EDTA, 5 mg/ml LEADseeker beads (GE Healthcare) in PBS (10 ul).
In general terms: Scintillation proximity formats need no separation of bound from free tracer.
On to `CNc1nc(-c2ccc3c(C)n[nH]c3c2)cc(N2C[C@@H](C(=O)NC3CCCCC3)CC[C@H]2C)n1` [Example 83, (3S,6R)—N-Cyclohexyl-6-methyl-1-[2-(methylamino)-6-(3-methyl-1H-indazol-6-yl)-4-pyrimidinyl]-3-piperidinecarboxamide], for which the IC50 is < 20 nM.
Same read-out and setting: the result for `CNc1nc(-c2ccc3c(N)n[nH]c3c2)cc(N2C[C@@H](C(=O)NCc3ccccc3)OC[C@H]2C)n1` [Example 161, (2S,5R)-4-[6-(3-Amino-1H-indazol-6-yl)-2-(methylamino)-4-pyrimidinyl]-5-methyl-N-(phenylmethyl)-2-morpholinecarboxamide] reads < 20 nM.

The next assay concerns AKT phosphorylation at T308 in PC-3 cells. In words: Phospho-AKT (T308) ELISA in PC3 cells. The format is cell-based. To be noted: Homo sapiens, 6 hours compound treatment, in at least one experimental run, read-out: IC50 for inhibition of AKT phosphorylation at T308 in PC-3 cells. The protocol:
Phospho-AKT (S473, T308, Total AKT) and phospho-RSK ELISA
PC3 cells (ATCC, Manassas, Va.) were plated in 96-well flat bottom plates (Corning, Lowell, Mass.) at a density of 15,000 cells/well in RPMI 1640 medium supplemented with 10% FBS. Cells were incubated at 37° C., 5% CO2 for 18-20 h. Compounds (dissolved in 100% DMSO) were diluted in an 11-point 3-fold dilution in DMSO. Compound dilution stocks were further diluted in RPMI 1640 with 10% FBS and added to each cell well. DMSO without compound was used in control wells. Final concentration of DMSO in each well was 0.15%. After 6 hours at 37° C. cells were washed with cold PBS (without calcium or magnesium) and lysed in lysis buffer (Meso Scale Discovery, Gaithersburg, Md.) supplemented with 1 protease inhibitor tablet/10 ml (Roche, Indianapolis, Ind.), 10 mM NaF, and 200 μl/10 ml Sigma phosphatase inhibitor 1 & 2 (Sigma Aldrich, St Louis, Mo.) for 30 min at 4° C. All washes were performed on a Bio Tek ELx405 plate washer (Bio Tek Instruments, Winooski, Vt.).
ELISA plates (Meso Scale Discovery; AKT Duplex, cat. N41100B-1; phospho AKT, cat. N411CAB-1; RSK, cat. N41ZB-1) were prepared by the addition of blocking buffer (3% Blocker A diluted in wash buffer (Meso Scale Discovery) for AKT duplex assay and phospho AKT assays; 5% Blocker A/1% Blocker B in Tris-buffered saline for RSK) for 1 hour and washed with wash buffer. Lysates were transferred to assay wells and incubated overnight at 4° C. Following washing with wash buffer, detection buffer (1% Blocker A in wash buffer for AKT duplex and phospho AKT or 1% Blocker A in TBS for RSK) with appropriate antibodies was added. Detection of AKT duplex and phospho AKT was carried out using a sulfo-tagged detection antibodies (Meso Scale Discovery). Detection of phospho-RSK was carried out sequentially with anti phospho-RSK1 (S221)/RSK2 (S227) (R&D systems, Minneapolis, Minn., cat. AF892) and goat anti-rabbit sulfo-tag antibody (cat R32AB-1; Meso Scale Discovery). Plates were incubated for 1 hour at room temperature and washed with wash buffer. Plates were read on a SECTOR™ Imager 6000 (Meso Scale Discovery) using Workbench software (Meso Scale Discovery) following addition of read buffer (Meso Scale Discovery) to each well. For analysis, phospho-AKT (S473) signals were normalized to total AKT, while phospho-AKT (T308) and phospho-RSK signals were analyzed without normalization. All values were expressed as percent of the DMSO-treated controls. IC50s were determined from inhibition curves using XLfit4 software (IDBS, Guildford, UK).
With `CNc1nc(-c2ccc3c(N)n[nH]c3c2)cc(N2CC(C(=O)NC3CCCCC3)CCC2C(F)(F)F)n1` (stereo not drawn) [Example 49, Cis-1-[6-(3-Amino-1H-indazol-6-yl)-2-(methylamino)-4-pyrimidinyl]-N-cyclohexyl-6-(trifluoromethyl)-3-piperidinecarboxamide], the IC50 was < 1000 nM.
On the same count and under the same terms, the result for `C[C@@H]1CO[C@H](C(=O)Nc2ccccc2)CN1c1cc(-c2ccc3c(N)n[nH]c3c2)nc(N)n1` [Example 67, (2S,5R)-4-[2-Amino-6-(3-amino-1H-indazol-6-yl)-4-pyrimidinyl]-5-methyl-N-phenyl-2-morpholinecarboxamide] reads < 1000 nM; that for `CNc1nc(-c2ccc3c(N)n[nH]c3c2)cc(N2C[C@@H](C(=O)Nc3ccccc3)CC[C@H]2C)n1` [Example 77, (3S,6R)-1-[6-(3-amino-1H-indazol-6-yl)-2-(methylamino)-4-pyrimidinyl]-6-methyl-N-phenyl-3-piperidinecarboxamide], < 1000 nM; that for `CNc1nc(-c2ccc3c(N)n[nH]c3c2)cc(N2C[C@@H](C(=O)NC3CCCCC3)CC[C@H]2C)n1` [Example 78, (3S,6R)-1-[6-(3-Amino-1H-indazol-6-yl)-2-(methylamino)-4-pyrimidinyl]-N-cyclohexyl-6-methyl-3-piperidinecarboxamide], < 1000 nM.
Same read-out and setting: the result for `CNc1nc(-c2ccc3cn[nH]c3c2)cc(N2C[C@@H](C(=O)NCc3ccccc3)CC[C@H]2C)n1` [Example 81, (3S,6R)-1-[6-(1H-Indazol-6-yl)-2-(methylamino)-4-pyrimidinyl]-6-methyl-N-(phenylmethyl)-3-piperidinecarboxamide] reads < 1000 nM; that for `CNc1nc(-c2ccc3c(C)n[nH]c3c2)cc(N2C[C@@H](C(=O)NC3CCCCC3)CC[C@H]2C)n1` [Example 83, (3S,6R)—N-Cyclohexyl-6-methyl-1-[2-(methylamino)-6-(3-methyl-1H-indazol-6-yl)-4-pyrimidinyl]-3-piperidinecarboxamide], < 1000 nM.
On the same count and under the same terms, the same measure for `CNc1nc(-c2cc(F)c3c(N)n[nH]c3c2)cc(N2C[C@@H](C(=O)NCc3ccccc3)CC[C@H]2C)n1` [Example 86, (3S,6R)-1-[6-(3-Amino-4-fluoro-1H-indazol-6-yl)-2-(methylamino)-4-pyrimidinyl]-6-methyl-N-(phenylmethyl)-3-piperidinecarboxamide]: < 1000 nM.
`C[C@@H]1CC[C@H](C(=O)NC2CCCCC2)CN1c1cc(-c2ccc3c(N)n[nH]c3c2)nc(N)n1` [Example 121, (3S,6R)-1-[2-Amino-6-(3-amino-1H-indazol-6-yl)-4-pyrimidinyl]-N-cyclohexyl-6-methyl-3-piperidinecarboxamide]: the IC50 is < 1000 nM.
For `CC1CCC(NC(=O)[C@H]2CC[C@@H](C)N(c3cc(-c4ccc5c(N)n[nH]c5c4)nc(N)n3)C2)CC1` (stereo partly drawn) [Example 150, (3S,6R)-1-[2-Amino-6-(3-amino-1H-indazol-6-yl)-4-pyrimidinyl]-6-methyl-N-(4-methylcyclohexyl)-3-piperidinecarboxamide], the IC50 is < 1000 nM.
On to `CNc1nc(-c2ccc3c(N)n[nH]c3c2)cc(N2C[C@@H](C(=O)NCc3ccccc3)OC[C@H]2C)n1` [Example 161, (2S,5R)-4-[6-(3-Amino-1H-indazol-6-yl)-2-(methylamino)-4-pyrimidinyl]-5-methyl-N-(phenylmethyl)-2-morpholinecarboxamide], for which the IC50 is < 1000 nM.
With `CC[C@@H]1CO[C@H](C(=O)NCc2ccccc2)CN1c1cc(-c2ccc3c(N)n[nH]c3c2)nc(NC)n1` [Example 176, (2S,5R)-4-[6-(3-Amino-1H-indazol-6-yl)-2-(methylamino)-4-pyrimidinyl]-5-ethyl-N-(phenylmethyl)-2-morpholinecarboxamide], the IC50 is < 1000 nM.
Still for that read-out and setting: the result for `C[C@@H]1C[C@@H](NC(=O)OC(C)(C)C)CN(c2cc(-c3ccc4c(N)n[nH]c4c3)nc(N)n2)C1` [Example 212, 1,1-Dimethylethyl{(3R,5R)-1-[2-amino-6-(3-amino-1H-indazol-6-yl)-4-pyrimidinyl]-5-methyl-3-piperidinyl}carbamate] reads < 1000 nM.

The values are drawn from US8697685B2, “Chemical compounds” (GlaxoSmithKline LLC, priority 2008, dated 2014).
